According to US12180187B2, “1-phenyl-5-azinylpyrazolyl-3-oxyalkyl acids and their use for controlling unwanted plant growth” (BAYER AKTIENGESELLSCHAFT, priority 2019, dated 2024):

Tests used:
[1] = test system: MATIN; assay: Pre-emergence action against MATIN, 1280 g/ha; assay type: in vivo, Tripleurospermum inodorum (Matricaria inodora); details: scored visually after about 3 weeks vs untreated controls (100% = plants have died)
In short: (§1)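 In greenhouse pots of sandy loam, sown weed seeds were covered with soil and treated pre-emergence with the compound in water (600 L/ha, 0.5% additive). Efficacy was assessed visually as percent of untreated control after about 3 weeks.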

[2] = test system: DIGSA; assay: Post-emergence action against DIGSA, 1.28 kg/ha; assay type: in vivo, Digitaria sanguinalis; details: dosage 1280 g/ha, visual rating about 3 weeks after treatment vs untreated controls
In short: (§2)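 Percent activity was scored visually ~3 wk post-spray relative to untreated plants. Treatment was post-emergence at the one-leaf stage using WP/EC in water with 0.5% additive (600 L/ha).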

[3] = test system: ECHCG; assay: Pre-emergence action against ECHCG, 1280 g/ha; assay type: in vivo, Echinochloa crus-galli; details: visual scoring after about 3 weeks vs untreated controls, 100% = plants have died, 0% = like control plants
In short: as §1

[4] = test system: POLCO; assay: Pre-emergence action at 320 g/ha against POLCO; assay type: in vivo, Fallopia convolvulus (Polygonum convolvulus); details: visual scoring after about 3 weeks vs untreated controls
In short: (§3)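 Visual % scoring at about 3 weeks post-treatment against untreated pots (0% = like control, 100% = dead), greenhouse-grown. Compounds applied at 320 g/ha as aqueous WP/EC suspension or emulsion plus 0.5% additive, 600 l/ha water, onto covering soil of freshly sown pots before emergence.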

[5] = test system: MATIN; assay: Pre-emergence action at 320 g/ha against MATIN; assay type: in vivo, Tripleurospermum inodorum (Matricaria inodora); details: visual scoring after about 3 weeks vs untreated controls
In short: as §3

[6] = test system: DIGSA; assay: Pre-emergence action at 320 g/ha against DIGSA; assay type: in vivo, Digitaria sanguinalis; details: visual scoring after about 3 weeks vs untreated controls
In short: as §3

[7] = test system: ALOMY; assay: Pre-emergence action at 320 g/ha against ALOMY; assay type: in vivo, Alopecurus myosuroides; details: scored visually after about 3 weeks vs untreated controls (100% = plants have died)
In short: as §3

[8] = test system: AMARE; assay: Pre-emergence action at 320 g/ha against AMARE; assay type: in vivo, Amaranthus retroflexus; details: visual scoring after about 3 weeks vs untreated controls
In short: as §3

[9] = test system: SETVI; assay: Pre-emergence action against SETVI, 1280 g/ha; assay type: in vivo, Setaria viridis; details: visual scoring after about 3 weeks vs untreated controls, 100% = plants have died, 0% = like control plants
In short: as §1

[10] = test system: SETVI; assay: Pre-emergence action at 320 g/ha against SETVI; assay type: in vivo, Setaria viridis; details: visual scoring after about 3 weeks vs untreated controls
In short: as §3

[11] = test system: POAAN; assay: Post-emergence action against POAAN, 1.28 kg/ha; assay type: in vivo, Poa annua; details: dosage 1280 g/ha, visual rating about 3 weeks after treatment vs untreated controls
In short: as §2

[12] = test system: AMARE; assay: Pre-emergence action against AMARE, 1280 g/ha; assay type: in vivo, Amaranthus retroflexus; details: scored visually after about 3 weeks vs untreated controls (100% = plants have died)
In short: as §1

[13] = test system: MATIN; assay: Post-emergence action against MATIN, 1.28 kg/ha; assay type: in vivo, Tripleurospermum inodorum (Matricaria inodora); details: dosage 1280 g/ha, visual rating about 3 weeks after treatment vs untreated controls (100% = plants died)
In short: as §2

[14] = test system: VERPE; assay: Pre-emergence action at 320 g/ha against VERPE; assay type: in vivo, Veronica persica; details: visual scoring after about 3 weeks vs untreated controls
In short: as §3

[15] = test system: POAAN; assay: Pre-emergence action against POAAN, 1280 g/ha; assay type: in vivo, Poa annua; details: visual scoring after about 3 weeks vs untreated controls, 100% = plants have died, 0% = like control plants
In short: as §1

[16] = test system: STEME; assay: Pre-emergence action against STEME, 1280 g/ha; assay type: in vivo, Stellaria media; details: scored visually after about 3 weeks vs untreated controls (100% = plants have died)
In short: as §1

[17] = Tripleurospermum inodorum, 504 h

| Structure (SMILES) | Pre-emergence action against MATIN [1] [%] | Post-emergence action against DIGSA [2] [%] | Pre-emergence action against ECHCG [3] [%] | Pre-emergence action against POLCO in % [4] [%] | Pre-emergence action against MATIN in % [5] [%] | Pre-emergence action against DIGSA in % [6] [%] | Pre-emergence action at 320 g/ha against ALOMY in % [7] [%] | Pre-emergence action against AMARE in % [8] [%] | Pre-emergence action against SETVI [9] [%] | Pre-emergence action against SETVI in % [10] [%] | Post-emergence action against POAAN [11] [%] | Pre-emergence action against AMARE [12] [%] | Post-emergence action against MATIN [13] [%] | Pre-emergence action against VERPE in % [14] [%] | Pre-emergence action against POAAN [15] [%] | Pre-emergence action against STEME [16] [%] | further results |
| --- | --- | --- | --- | --- | --- | --- | --- | --- | --- | --- | --- | --- | --- | --- | --- | --- | --- |
| O=C(COc1nn(-c2ccccc2F)c(-c2ccc(F)nc2)c1Br)OCC1CCOC1 (stereo not shown) [VII-091] | 100 | 100 | 100 | 100 | 90 | 100 | 100 | 100 | 100 | 100 | 100 | 100 | 90 | 100 | 100 | 100 |  |
| COC(=O)C(C)Oc1nn(-c2ccccc2)c(-c2ccc(F)nc2)c1Cl (stereo not shown) [VII-023, Methyl 2-{[4-chloro-5-(6-fluoropyridin-3-yl)-1-phenyl-1H-pyrazol-3-yl]oxy}propanoate] |  | 90 |  |  |  |  |  |  |  |  |  |  | 90 |  |  |  | pest or weed control at 1280 g/ha [1, 17]: 90%; pest or weed control at 1280 g/ha ([3]; Echinochloa crus-galli, 504 h): 100%; pest or weed control at 320 g/ha ([4]; Fallopia convolvulus, 504 h): 100%; pest or weed control at 320 g/ha [5, 17]: 90%; pest or weed control at 320 g/ha ([6]; Digitaria sanguinalis, 504 h): 100%; pest or weed control at 320 g/ha ([7]; Alopecurus myosuroides, 504 h): 100%; pest or weed control at 320 g/ha ([8]; Amaranthus retroflexus, 504 h): 100%; pest or weed control at 1280 g/ha ([9]; Setaria viridis, 504 h): 100%; pest or weed control at 320 g/ha ([10]; Setaria viridis, 504 h): 100%; pest or weed control at 1280 g/ha ([11]; Poa annua, 504 h): 100%; pest or weed control at 1280 g/ha ([12]; Amaranthus retroflexus, 504 h): 100%; pest or weed control at 320 g/ha ([14]; Veronica persica, 504 h): 80%; pest or weed control at 1280 g/ha ([15]; Poa annua, 504 h): 100%; pest or weed control at 1280 g/ha ([16]; Stellaria media, 504 h): 100% |
| COC(=O)CNC(=O)COc1nn(-c2ccccc2F)c(-c2ccc(F)nc2)c1C(F)(F)F [Example X-007] | 100 | 100 | 100 | 90 | 100 | 100 | 100 | 100 | 100 | 100 | 100 | 100 | 90 | 100 | 100 | 100 |  |
| CS(=O)(=O)NC(=O)COc1nn(-c2ccccc2F)c(-c2ccc(F)nc2)c1Br [Example X-004] | 100 | 100 | 100 | 90 | 90 | 100 | 100 | 90 | 100 | 100 | 100 | 100 | 90 | 100 | 100 | 100 |  |
| COCCOC(=O)COc1nn(-c2ccccc2F)c(-c2ccc(F)nc2)c1Br [VII-052] | 100 | 100 | 100 | 100 | 90 | 100 | 100 | 100 | 100 | 100 | 100 | 100 | 100 | 90 | 100 | 100 |  |
| CCOC(=O)COc1nn(-c2ccccc2F)c(-c2ccc(F)nc2)c1C [VII-117] | 100 | 100 | 100 | 100 | 90 | 100 | 100 | 100 | 100 | 100 | 100 | 100 | 90 | 90 | 100 | 90 |  |
| COC(=O)[C@H](C)Oc1nn(-c2cc(F)ccc2F)c(-c2ccc(F)nc2)c1Br [VII-107] | 90 | 100 | 90 | 100 | 90 | 100 | 80 | 100 | 100 | 100 | 100 | 100 | 100 | 80 | 100 | 100 |  |
